Measured values from paper PMC5695821, “Pharmacological inhibition of RORγt suppresses the Th17 pathway and alleviates arthritis in vivo” (PLoS ONE, 2017).

Molecular target: T1, RORγt (Homo sapiens, UniProt P51449)
T1 construct: gene RORC; LBD, amino acids 264–518, His6-tagged
T1 sequence (P51449 264-518): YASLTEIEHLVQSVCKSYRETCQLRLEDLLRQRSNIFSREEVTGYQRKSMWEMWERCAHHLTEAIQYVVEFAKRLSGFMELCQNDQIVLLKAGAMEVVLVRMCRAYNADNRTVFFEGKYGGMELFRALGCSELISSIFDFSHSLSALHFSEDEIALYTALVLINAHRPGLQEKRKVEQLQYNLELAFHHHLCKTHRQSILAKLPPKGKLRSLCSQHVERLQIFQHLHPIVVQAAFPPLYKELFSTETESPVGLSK
Assay: TR-FRET displacement of RIP140 co-activator peptide from purified RORγt-LBD; supported by DSLS thermal shift (ΔTagg […] °C)
Type: binding

IC50: 19 nM
SMILES: Cc1ncc(C(=O)Nc2cn3ccnc3c(CN3CCN(C(=O)C4CCCC4)[C@@H](C)C3)c2C)cn1 [compound 1, (S)-N-(8-((4-(cyclopentanecarbonyl)-3-methylpiperazin-1-yl)methyl)-7-methylimidazo[1,2-a]pyridin-6-yl)-2-methylpyrimidine-5-carboxamide]
